According to ChEMBL document CHEMBL5244279, “Perspectives on SARS-CoV-2 Main Protease Inhibitors” (J Med Chem, 2021):
Peptide text beside a SMILES is read from it.

Experiments:
[1] = target: T1, Replicase polyprotein 1ab (Severe acute respiratory syndrome coronavirus 2, UniProt P0DTD1); assay: Inhibition of N-terminal MBP-tagged SARS CoV-2 Main protease by fluorescence based analysis
[2] = Inhibition of SARS CoV Main protease using MCA-AVLQSGFR-Lys(DNP)-Lys-NH2 peptide as substrate by fluorescence based analysis; set-up: species or system Severe acute respiratory syndrome-related coronavirus
[3] = Binding affinity to SARS CoV Main protease incubated for 20 mins by reverse-phase HPLC analysis; set-up: species or system Severe acute respiratory syndrome-related coronavirus
[4] = Cytotoxicity against African green monkey Vero E6 cells assessed as reduction of cell viability by CellTiterGlo assay; format: toxicity, cell-based, Vero C1008; conditions: chlorocebus sabaeus
[5] = Cytotoxicity against human Huh-7 cells assessed as reduction of cell viability; format: toxicity, cell-based
[6] = Cytotoxicity against cat CRFK cells assessed as reduction of cell viability; format: toxicity, cell-based, Felis catus
[7] = Cytotoxicity against mouse L929 cells assessed as reduction of cell viability; format: toxicity, cell-based
[8] = Inhibition of SARS CoV Main protease using Dabcyl-KTSAVLQSGFRKM-E(Edans)-NH2 peptide as substrate by FRET assay; set-up: species or system Severe acute respiratory syndrome-related coronavirus
SARS-CoV [9] = assay: Antiviral activity against SARS CoV infected in human Calu-3 cells assessed as reduction in viral RNA replication by qPCR analysis; format: functional, organism-based; conditions: Severe acute respiratory syndrome-related coronavirus
[10] = target: T1, Replicase polyprotein 1ab; assay: Inhibition of SARS CoV-2 Main protease using MCA-AVLQSGFR-Lys(DNP)-Lys-NH2 peptide as substrate by fluorescence based analysis
[11] = Inhibition of SARS CoV Main protease using 2-aminobenzoyl-SVTLQSG-Tyr(NO2)-R peptide as substrate by FRET assay; set-up: species or system Severe acute respiratory syndrome-related coronavirus
[12] = Half life in Sprague-Dawley rat at 10 mg/kg, iv measured upto 24 hrs by LC-MS/MS analysis; format: ADME, organism-based; conditions: in vivo
[13] = Half life in Beagle dog at 5 mg/kg, iv measured upto 24 hrs by LC-MS/MS analysis; format: ADME, organism-based, Canis lupus familiaris; conditions: in vivo
[14] = Clearance in Sprague-Dawley rat at 10 mg/kg, iv measured upto 24 hrs by LC-MS/MS analysis; format: ADME, organism-based; conditions: in vivo
[15] = Clearance in Beagle dog at 5 mg/kg, iv measured upto 24 hrs by LC-MS/MS analysis; format: ADME, organism-based, Canis lupus familiaris; conditions: in vivo
[16] = AUC in Sprague-Dawley rat at 10 mg/kg, iv measured upto 24 hrs by LC-MS/MS analysis; format: ADME, organism-based; set-up: time < 24 hrs, dose 10 mg/kg, route iv; conditions: in vivo
[17] = AUC in Beagle dog at 5 mg/kg, iv measured upto 24 hrs by LC-MS/MS analysis; format: ADME, organism-based, Canis lupus familiaris; set-up: time < 24 hrs, dose 5 mg/kg, route iv; conditions: in vivo
[18] = Binding affinity to SARS CoV Main protease incubated for 10 mins by FRET assay; set-up: species or system Severe acute respiratory syndrome-related coronavirus
[19] = Cytotoxicity against African green monkey Vero E6 cells assessed as reduction of cell viability by CCK8 assay; format: toxicity, cell-based, Vero C1008; conditions: chlorocebus sabaeus
SARS-CoV [20] = assay: microbe, parasite or virus in culture; conditions: Severe acute respiratory syndrome-related coronavirus, Vero C1008, 48 h
[21] = Binding affinity to SARS CoV N-terminal his-tagged Main protease using Dabcyl-KTSAVLQSGFRKME-Edan peptide as substrate by fluorescence based analysis; set-up: species or system Severe acute respiratory syndrome-related coronavirus
[22] = Inhibition of SARS CoV N-terminal his-tagged Main protease using Dabcyl-KTSAVLQSGFRKME-Edan peptide as substrate by fluorescence based analysis; set-up: species or system Severe acute respiratory syndrome-related coronavirus
[23] = Mean residence time in mouse at 20 mg/kg, sc; format: ADME, organism-based; conditions: in vivo
[24] = Half life in mouse at 20 mg/kg, sc; format: ADME, organism-based; conditions: in vivo
[25] = Drug concentration in mouse lung at 20 mg/kg, sc; format: ADME, organism-based; conditions: in vivo
[26] = Cytotoxicity against human HCT-8 cells assessed as reduction in cell viability by neutral red uptake assay; format: toxicity, cell-based
SARS-CoV-2 [27] = format: functional, organism-based, Vero E6; conditions: Severe acute respiratory syndrome coronavirus 2, strain 107, Vero C1008
[28] = Oral bioavailability in Sprague-Dawley rat; format: ADME, organism-based; conditions: in vivo
[29] = Cytotoxicity against human A549 cells assessed as reduction in cell viability by neutral red uptake assay; format: toxicity, cell-based
[30] = Cytotoxicity against dog MDCK cells assessed as reduction in cell viability by neutral red uptake assay; format: toxicity, cell-based, Canis lupus familiaris
[31] = Cytotoxicity against human Caco-2 cells assessed as reduction in cell viability by neutral red uptake assay; format: toxicity, cell-based
[32] = Cytotoxicity against African green monkey Vero cells assessed as reduction in cell viability by neutral red uptake assay; format: toxicity, cell-based; conditions: chlorocebus sabaeus
[33] = Toxicity in rat assessed as median lethal dose; conditions: in vivo, read-out: MLD
SARS-CoV-2 [34] = assay: Antiviral activity against SARS CoV-2 assessed as inhibition of viral growth; format: functional, organism-based; conditions: Severe acute respiratory syndrome coronavirus 2
SARS-CoV [35] = format: functional, organism-based, Vero E6; conditions: Severe acute respiratory syndrome-related coronavirus, 2019-nCoV/USA_WA1/2020, Vero C1008, 72 h
[36] = Cytotoxicity against African green monkey Vero E6 cells assessed as reduction of cell viability by XTT assay; format: toxicity, cell-based, Vero C1008; conditions: chlorocebus sabaeus
[37] = Inhibition of SARS CoV Main protease by FRET assay; set-up: species or system Severe acute respiratory syndrome-related coronavirus
SARS-CoV-2 [38] = format: functional, organism-based, Vero E6; conditions: Severe acute respiratory syndrome coronavirus 2, Vero C1008

Cc1cc(S(=O)(=O)c2c([N+](=O)[O-])cc(C(F)(F)F)cc2[N+](=O)[O-])c(Cl)cc1Cl
IC50 [1]: 300 nM

CCOC(=O)/C=C/[C@H](C[C@@H]1CCNC1=O)NC(=O)[C@H](CC(C)C)NC(=O)[C@@H](NC(=O)OCc1ccccc1)C(C)C
IC50 [2]: 9.1 µM | Ki [3]: 520 nM

CC(C)C[C@H](NC(=O)OCc1ccccc1)C(=O)N[C@@H](C[C@@H]1CCNC1=O)C(O)S(=O)(=O)O (stereo partly specified)
CC50 [4]: > 200 µM | CC50 [5]: > 200 µM | CC50 [6]: > 200 µM | CC50 [7]: > 200 µM

O=C(/C=C/c1ccccc1)N[C@@H](CC1CCCCC1)C(=O)N[C@@H](C[C@@H]1CCNC1=O)C(=O)C(=O)NCc1ccccc1
IC50 [8]: 710 nM | EC50 (SARS-CoV [9]): 1400 nM

O=C(/C=C/c1ccccc1)N[C@@H](CC1CC1)C(=O)N[C@@H](C[C@@H]1CCNC1=O)C(=O)C(=O)NCc1ccccc1
IC50 [8]: 240 nM | EC50 (SARS-CoV [9]): 1900 nM

CC(C)C[C@H](NC(=O)/C=C/c1ccccc1)C(=O)N[C@@H](C[C@@H]1CCNC1=O)C(=O)C(=O)NCc1ccccc1
IC50 [8]: 330 nM | EC50 (SARS-CoV [9]): 7200 nM

O=C(Oc1cncc(Cl)c1)c1cccs1
IC50 [10]: 81 nM | IC50 [11]: 500 nM

O=C[C@H](C[C@@H]1CCNC1=O)NC(=O)[C@H](Cc1cccc(F)c1)NC(=O)c1cc2ccccc2[nH]1
CC50 [4]: > 100 µM | CC50 [5]: > 100 µM | CC50 [6]: > 100 µM | CC50 [7]: > 100 µM | half-life [12]: 456 min | half-life [13]: 330 min | clearance [14]: 4.01 mL/min | clearance [15]: 5.8 mL/min | AUC at 24 h [16]: 41500 ng·h/mL | AUC at 24 h [17]: 14900 ng·h/mL

O=C[C@H](C[C@@H]1CCNC1=O)NC(=O)[C@H](CC1CCCCC1)NC(=O)c1cc2ccccc2[nH]1
CC50 [4]: > 100 µM | CC50 [5]: > 100 µM | CC50 [6]: > 100 µM | CC50 [7]: > 100 µM

C[C@@H](OC(C)(C)C)[C@H](NC(=O)OCc1ccccc1)C(=O)N[C@@H](CC1CCCCC1)C(=O)N[C@H](C=O)C[C@@H]1CCNC1=O
Ki [18]: 53 nM | CC50 [19]: > 200 µM | EC50 (SARS-CoV [20]): 600 nM

O=C(On1nnc2ccccc21)c1ccc2[nH]ccc2c1
Ki [21]: 7.5 nM | IC50 [22]: 200 nM

CC(C)(C)OC(=O)Nc1cccn([C@@H](CC2CC2)C(=O)N[C@@H](C[C@@H]2CCNC2=O)C(=O)C(=O)NCc2ccccc2)c1=O
IC50 [8]: 900 nM | MRT [23]: 2.7 h | half-life [24]: 108 min | Ct [25]: 13 ng/g

CC(C)C[C@H](NC(=O)OCC1CCC(F)(F)CC1)C(=O)N[C@@H](C[C@@H]1CCNC1=O)C(O)S(=O)(=O)O (stereo partly specified)
CC50 [5]: > 100 µM | CC50 [6]: > 100 µM | CC50 [7]: > 100 µM | CC50 [26]: > 100 µM

CC1(C)[C@@H]2[C@@H](C(=O)N[C@H](C=O)C[C@@H]3CCNC3=O)N(C(=O)COc3ccc(OC(F)(F)F)cc3)C[C@@H]21
EC50 (SARS-CoV-2 [27]): 860 nM | bioavailability [28]: 14.6%

CCC[C@H](NC(=O)[C@H](CC(C)C)NC(=O)OCc1ccccc1)C(=O)C(=O)NCc1ccccn1
CC50 [29]: > 100 µM | CC50 [30]: > 100 µM | CC50 [31]: > 100 µM | CC50 [32]: > 100 µM

O=c1c2ccccc2[se]n1Cc1ccco1
IC50 [10]: 74 nM | Ki [10]: 31 nM | LD50 [33]: > 4600 mg/kg | EC50 (SARS-CoV-2 [34]): 4.67 µM

CCOC(=O)/C=C/[C@H](C[C@@H]1CCNC1=O)NC(=O)[C@H](CC(C)C)NC(=O)[C@@H](NC(=O)OCc1ccccc1)[C@@H](C)OC(C)(C)C
IC50 [10]: 151 nM | Ki [3]: 58 nM | EC50 (SARS-CoV [35]): 2.88 µM

CC(=O)/C=C/[C@H](C[C@@H]1CCNC1=O)NC(=O)[C@H](CC(C)C)NC(=O)[C@H](CNC(=O)C(C)(C)C)NC(=O)OCc1ccccc1
Ki [3]: 38 nM

O=C[C@H](C[C@@H]1CCNC1=O)NC(=O)[C@@H]1[C@H]2CCC[C@H]2CN1C(=O)COc1ccc(Cl)cc1Cl
bioavailability [28]: 11.2%

CCOC(=O)/C=C/[C@H](Cc1ccccc1)NC(=O)[C@H](Cc1ccccc1)NC(=O)/C=C\c1ccc(N(C)C)cc1
Ki [3]: 660 nM | EC50 (SARS-CoV [35]): 18 µM | CC50 [36]: > 200 µM

CC(C)C[C@H](NC(=O)OC1CCC(F)(F)CC1)C(=O)N[C@@H](C[C@@H]1CCNC1=O)C(O)S(=O)(=O)O (stereo partly specified)
IC50 [37]: 2200 nM | CC50 [5]: > 100 µM | CC50 [6]: > 100 µM | CC50 [7]: > 100 µM | CC50 [26]: > 100 µM

CC(C)C[C@H](NC(=O)OC1CCC(F)(F)CC1)C(=O)N[C@H](C=O)C[C@@H]1CCNC1=O
IC50 [37]: 480 nM | IC50 (SARS-CoV-2 [38]): 2300 nM | CC50 [5]: > 100 µM | CC50 [6]: > 100 µM | CC50 [7]: > 100 µM

CCCCC1CCC(OC(=O)N[C@@H](CC(C)C)C(=O)N[C@@H](C[C@@H]2CCNC2=O)C(O)S(=O)(=O)O)CC1 (stereo partly specified)
IC50 [37]: 1000 nM | CC50 [5]: 59.1 µM | CC50 [6]: 59.1 µM | CC50 [7]: 59.1 µM

CC(C)C[C@H](NC(=O)/C=C\c1ccccc1)C(=O)N[C@H](C=O)C[C@@H]1CCCNC1=O
Ki [18]: 53 nM

CC(C)C[C@H](NC(=O)OC1CCCCC1)C(=O)N[C@@H](C[C@@H]1CCNC1=O)C(O)S(=O)(=O)O (stereo partly specified)
IC50 [37]: 3800 nM | CC50 [5]: > 100 µM | CC50 [6]: > 100 µM | CC50 [7]: > 100 µM

CC(C)C[C@H](NC(=O)[C@@H](NC(=O)OCc1ccccc1)[C@@H](C)OC(C)(C)C)C(=O)N[C@H](/C=C/C(=O)C1CC1)C[C@@H]1CCNC1=O
Ki [3]: 99 nM

CC(=O)N[C@H](C(=O)N[C@H](C(=O)N[C@@H](CC(C)C)C(=O)N[C@@H](CCC(=O)N(C)C)C(=O)Cn1[nH]c(=O)c2c([N+](=O)[O-])cccc2c1=O)[C@@H](C)OCc1ccccc1)C(C)C
IC50 [1]: 600 nM

CSCC[C@@H](C=O)NC(=O)[C@H](CC(C)C)NC(=O)[C@H](CC(C)C)NC(C)=O (Ac-Leu-Leu-Met-aldehyde)
CC50 [29]: > 100 µM | CC50 [30]: > 100 µM | CC50 [31]: > 100 µM | CC50 [32]: > 100 µM

O=c1cc(-c2ccccc2)oc2cc(O)c(O)c(O)c12 [BAICALEIN]
CC50 [4]: > 200 µM
